Results on nine compounds are retold here after US8524712B2, “Triazinone and diazinone derivatives useful as HSP90 inhibitors” (Synta Pharmaceuticals Corp., priority 2007, dated 2013).

SMILES strings stand for the structures.

Broadly, the IC50 is the concentration at which inhibition is half-maximal. Lower therefore signals greater potency in that assay.

The first test concerns MV-4-11 cells. The experiment in a line: IC50 of Table 2: Method 2, MV-4-11 cell survival (Cell Counting Kit-8), reported as Her2 degradation / inhibition of Hsp90. Particulars: Homo sapiens, MV4-11, 72 hours at 37° C., text calls it Her2 degradation, table title inhibition of Hsp90. It counts as cell-based. Here is the method: MV-4-11 cells (20,000 cells/well) were cultured in 96-well plates and maintained at 37° C. for several hours. The cells were treated with a compound of the invention or 17AAG (a positive control) at various concentrations and incubated at 37° C. for 72 hours. Cell survival was measured with Cell Counting Kit-8 (Dojindo Laboratories, Cat. #CK04).
In general terms: Tetrazolium dyes change colour on reduction, which living cells bring about.
For `CCOC(=O)C1=C(C)NC(=O)NC1c1cc(C(C)C)c(O)cc1O` (stereo not drawn) [Compound 1, ethyl 4-(2,4-dihydroxy-5-isopropylphenyl)-6-methyl-2-oxo-1,2,3,4-tetrahydropyrimidine-5-carboxylate], the IC50 is > 100 µM.

As for `CCN1CC2=C(C1=O)C(c1cc(C(C)C)c(O)cc1O)NC(=O)N2` (stereo not drawn) [Compound 2, 4-(2,4-dihydroxy-5-isopropylphenyl)-6-ethyl-3,4,6,7-tetrahydro-1H-pyrrolo[3,4-d]pyrimidine-2,5-dione], the IC50 was > 100 µM.

For `CC(C)c1cc(C2NC(=O)NC3=C2C(=O)OC3)c(O)cc1O` (stereo not drawn) [Compound 3, 4-(2,4-dihydroxy-5-isopropylphenyl)-3,4-dihydrofuro[3,4-d]pyrimidine-2,5(1H,7H)-dione], the IC50 is > 500 µM.

Regarding `CC(C)c1cc(C2=NNC(=O)CN2c2ccc3c(ccn3C)c2)c(O)cc1O` [Compound 4, 3-(2,4-dihydroxy-5-isopropylphenyl)-4-(1-methyl-1H-indol-5-yl)-4,5-dihydro-1,2,4-triazin-6(1H)-one], the IC50 was > 50 µM.

Turning to `CC(C)c1cc(C2=NNC(=O)CN2Cc2ccc3c(c2)OCO3)c(O)cc1O` [Compound 5, 4-(benzo[d][1,3]dioxol-5-ylmethyl)-3-(2,4-dihydroxy-5-isopropylphenyl)-4,5-dihydro-1,2,4-triazin-6(1H)-one], the IC50 was 38.4 µM.

Take `CC(C)c1cc(C2=NNC(=O)CN2c2ccc(N3CCOCC3)cc2)c(O)cc1O` [Compound 6, 3-(2,4-dihydroxy-5-isopropylphenyl)-4-(4-morpholinophenyl)-4,5-dihydro-1,2,4-triazin-6(1H)-one]: the IC50 is > 50 µM.

As for `CC(C)c1cc(C2=NNC(=O)CN2c2ccc(N(C)C)cc2)c(O)cc1O` [Compound 7, 3-(2,4-dihydroxy-5-isopropylphenyl)-4-(4-(dimethylamino)phenyl)-4,5-dihydro-1,2,4-triazin-6(1H)-one], the IC50 is > 50 µM.

As for `COc1ccc(CN2CC(=O)NN=C2c2cc(C(C)C)c(O)cc2O)cc1` [Compound 8, 3-(2,4-dihydroxy-5-isopropylphenyl)-4-(4-methoxybenzyl)-4,5-dihydro-1,2,4-triazin-6(1H)-one], the IC50 was > 50 µM.

The next test concerns Her2. The experiment in a line: Degradation of Her2 in BT-474 cells, Method 1 (Western blot). In kind it is cell-based, human. The settings on record: 0.5 μM, overnight. How it is done:
Human high-Her2 breast carcinoma BT474 (HTB-20), SK-BR-3 (HTB-30) and MCF-7 breast carcinoma (HTB-22) from American Type Culture Collection, VA, USA were grown in Dulbecco's modified Eagle's medium with 4 mM L-glutamine and antibiotics (100 IU/ml penicillin and 100 ug/ml streptomycine; GibcoBRL). To obtain exponential cell growth, cells were trypsinized, counted and seeded at a cell density of 0.5×10^6 cells/ml regularly, every 3 days. All experiments were performed on day 1 after cell passage.
BT-474 cells are treated with 0.5 μM, 2 μM, or 5 μM of 17AAG (a positive control) or 0.5 μM, 2 μM, or 5 μM of a compound of the invention overnight in DMEM medium. After treatment, each cytoplasmic sample is prepared from 1×10^6 cells by incubation of cell lysis buffer (#9803, cell Signaling Technology) on ice for 10 minutes. The resulting supernatant used as the cytosol fractions is dissolved with sample buffer for SDS-PAGE and run on a SDS-PAGE gel, blotted onto a nitrocellulose membrane by using semi-dry transfer. Non-specific binding to nitrocellulose is blocked with 5% skim milk in TBS with 0.5% Tween at room temperature for 1 hour, then probed with anti-Her2/ErB2 mAb (rabbit IgG, #2242, Cell Signaling) and anti-Tubulin (T9026, Sigma) as housekeeping control protein. […]
A general note: A western blot detects proteins with antibodies after separation by electrophoresis.
For the compound `C=CCNC1=C2C[C@@H](C)C[C@H](OC)[C@H](O)[C@@H](C)/C=C(\C)[C@H](OC(N)=O)[C@@H](OC)/C=C\C=C(/C)C(=O)NC(=CC1=O)C2=O` [Compound 17AAG, 17-allylamino-17-demethoxygeldanamycin], the “degradation of Her2” value is “partial degradation”.
